According to US5013722A, “Cholecystokinin analogs for controlling appetite” (Hoffmann-LaRoche Inc., priority 1989, dated 1991):
pIC50: −log10 of the molar value. Where a SMILES comes first, the peptide text is derived from it. [ ]: non-standard residue; d: D form. The star is where a group is joined. Thr(SO3H) = C[C@@H](OS(=O)(=O)O)[C@H](N)C(=O)O; sY = N[C@@H](Cc1ccc(OS(=O)(=O)O)cc1)C(=O)O; N(CH2CH2NHAc)Gly = CC(=O)NCCNCC(=O)O; NMeF = CN[C@@H](Cc1ccccc1)C(=O)O; Nle = CCCC[C@H](N)C(=O)O; For = O=C*

Experiments:
[1] = system: Male Sprague-Dawley (CD) rats, food intake; test: Two-meal feeding assay, intraperitoneal administration; format: in vivo, rat
Experimental: Male Sprague-Dawley (CD) rats weighing 180-200 grams (Charles River Breeding Laboratories) were acclimated to a 12 h light/dark cycle (6 a.m. to 6 p.m.) in a room kept at 22° C. They were subsequently fasted for two days, weighed, placed in individual cages, and a four-day period of meal training was begun. During this time the rats were given ground laboratory chow (Purina Lab Chow) in jars for one hour from 9:00 a.m. until 10:00 a.m., the jars were removed from 10:00 a.m. to 12:00 p.m., and placed back in the cages from 12:00 until 1:00 p.m. Under this `1-2-1` meal feeding regime most rats learn to eat approximately as much Per day during the two hours they have access to food as rats which have food ad libitum over the entire 24-hour day. On the fourth day, the rats were weighed again, and any which lost more than five grams body weight were excluded from the test. The animals were then distributed into experimental (n=5 to 6) and control groups (n=6-12). but not matched for body weight.
Peptides of the invention were suspended either in saline. if soluble, or in 1% gum arabic, if insoluble, at concentrations of 0 to 320 μg/ml/kg body weight and were administered intraperitonerally 15 min before the first meal on day 5 of meal feeding. The rats were then given their meals as they had been during the previous four days, and the food cups were weighed both before and after each meal to determine food consumption. Food intake was expressed as a mean and standard error of the mean in grams consumed or as a percent of control values for the various groups. The treated groups were compared to the control groups by t-test analysis. […]

[2] = target: T1, receptors in bovine striatum (3H-CCK-8-(SO3 H) binding, central receptor) (Bos taurus, UniProt P79266); test: In vitro receptor binding assay, bovine striatum homogenate, 3H-CCK-8-(SO3H) radioligand; details: 0.15 nM radioligand, 30 min, 25° C.; read-out: Bovine Striatum IC50 (inhibition of specific 3H-CCK-8-(SO3H) binding)
T1 construct: receptors in homogenized preparations of rat pancreatic cells and bovine striata; from tissue; host or cells: bovine striatum homogenate (48,000 x g pellet)
T1 sequence (P79266 1-454): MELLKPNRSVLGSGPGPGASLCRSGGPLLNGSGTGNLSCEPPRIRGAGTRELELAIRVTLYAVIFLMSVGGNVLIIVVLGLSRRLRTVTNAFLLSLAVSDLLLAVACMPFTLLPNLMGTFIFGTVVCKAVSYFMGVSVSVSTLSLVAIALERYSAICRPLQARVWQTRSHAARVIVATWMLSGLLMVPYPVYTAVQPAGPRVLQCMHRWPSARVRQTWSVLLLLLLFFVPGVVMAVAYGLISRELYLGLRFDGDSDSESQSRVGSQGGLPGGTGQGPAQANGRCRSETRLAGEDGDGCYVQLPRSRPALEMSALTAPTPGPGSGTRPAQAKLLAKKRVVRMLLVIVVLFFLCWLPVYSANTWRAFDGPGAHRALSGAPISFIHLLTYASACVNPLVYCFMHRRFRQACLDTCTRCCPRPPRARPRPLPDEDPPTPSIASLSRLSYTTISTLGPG
Experimental: Frozen bovine striatum (approx. 5 g) and fresh rat pancreas (approx. 5 g) cleaned of fat and extraneous tissue were homogenized in HEPES buffer #1 (10 mM HEPES+130 mM NaCl+5 mM MgCl2. pH 7.4) using 35 parts buffer per 1 part tissue on a wet weight/volume basis (approx. 175 ml). The tissue was homogenized 2 x for approx. 15 sec. at 0° C. using a Polytron homogenizer at a setting of 6. The tissue was isolated by centrifugation at 48,000 x g for 10 min. at 0° C. The resulting tissue pellet was resuspended in HEPES buffer #2 (10 mM HEPES+130 mM NaCl+5 mM MgCl2 +1 mg/L phenylmethanesulfonyl fluoride (PMSF)+200 mg/L Bacitracin): 1 part striatal tissue (original wet weight) per 80 parts buffer and 1 part pancreas tissue (original wet weight) per 70 parts buffer.
Incubation was initiated by combining various concentrations of native CCK-8 or peptides of formula I, II and III with ^3 H-CCK-8-(SO3 H) (final conc.=0.15 nM) and tissue homogenate (striatum 0.26 mg protein in 2 ml final volume; pancreas 0.165 mg protein in 1 ml final volume). Samples were incubated for 30 min. at 25° C. and the incubation terminated by pouring the mixture onto a pre-wet Whatman GF/B filter on a Sandbeck Vacuum Filtration Manifold. The incubation tubes were washed with 2×3 ml of ice-cold HEPES Buffer #2 and the wash filtered through the GF/B filter. The filter was air dried for 10 min. and then placed in a scintillation vial with 12 ml of Beckman HP/b Ready-Solv scintillation cocktail. The vials were shaken for 2 hours and then counted using a Beckman Model 7800 liquid scintillation spectrometer. Non-specific binding was determined in the presence of 1 micromole native CCK-8 and subtracted from all samples to determine specific binding. The concentration of ^3 peptide necessary to inhibit 50% of total specific H-CCK-8-(SO3 H) binding (IC50 value) was determined by log-probit analysis.

[3] = target: T2, receptors in rat pancreas (3H-CCK-8-(SO3 H) binding) (Rattus norvegicus, UniProt P30551); test: In vitro receptor binding assay, rat pancreas homogenate, 3H-CCK-8-(SO3H) radioligand; details: 0.15 nM radioligand, 30 min, 25° C.; read-out: Rat Pancreas IC50 (inhibition of specific 3H-CCK-8-(SO3H) binding)
T2 construct: receptors in homogenized preparations of rat pancreatic cells and bovine striata; from tissue; host or cells: rat pancreas homogenate (48,000 x g pellet)
T2 sequence (P30551 1-444): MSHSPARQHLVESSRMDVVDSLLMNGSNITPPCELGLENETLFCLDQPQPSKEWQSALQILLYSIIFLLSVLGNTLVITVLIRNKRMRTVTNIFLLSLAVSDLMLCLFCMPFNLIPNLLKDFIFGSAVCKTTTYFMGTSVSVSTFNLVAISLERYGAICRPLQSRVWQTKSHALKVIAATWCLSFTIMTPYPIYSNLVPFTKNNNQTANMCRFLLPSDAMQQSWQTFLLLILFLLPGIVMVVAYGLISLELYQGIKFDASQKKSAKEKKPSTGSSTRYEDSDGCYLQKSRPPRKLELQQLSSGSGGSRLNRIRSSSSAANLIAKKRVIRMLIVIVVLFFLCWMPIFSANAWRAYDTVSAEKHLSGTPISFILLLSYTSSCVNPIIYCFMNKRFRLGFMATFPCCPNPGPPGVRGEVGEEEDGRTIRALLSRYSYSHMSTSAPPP
Experimental: This strategy was utilized to minimize central nervous system side effects by identifying peptides with peripheral receptor selectivity. […] The tissue was homogenized 2 x for approx. 15 sec. at 0° C. using a Polytron homogenizer at a setting of 6. The tissue was isolated by centrifugation at 48,000 x g for 10 min. at 0° C. […] Samples were incubated for 30 min. at 25° C. and the incubation terminated by pouring the mixture onto a pre-wet Whatman GF/B filter on a Sandbeck Vacuum Filtration Manifold. The incubation tubes were washed with 2×3 ml of ice-cold HEPES Buffer #2 and the wash filtered through the GF/B filter. The filter was air dried for 10 min. and then placed in a scintillation vial with 12 ml of Beckman HP/b Ready-Solv scintillation cocktail. The vials were shaken for 2 hours and then counted using a Beckman Model 7800 liquid scintillation spectrometer.

[4] = 32 microgm/Kg i.p., 15 min before first meal, mean ± SEM

Row | SMILES | Food Intake 1st Meal [1, 4] | Food Intake 2nd Meal ([1]; 32 microgm/Kg i.p., mean ± SEM) | pIC50 [2] | pIC50 [3] | also measured
1 | CCCC[C@H](NC(=O)[C@H](Cc1ccc(OS(=O)(=O)O)cc1)NC(C)=O)C(=O)NCC(=O)N[C@@H](Cc1c[nH]c2ccccc12)C(=O)N[C@@H](CCCC)C(=O)N[C@H](C(=O)N(C)[C@@H](Cc1ccccc1)C(N)=O)[C@@H](C)OS(=O)(=O)O [Example 13, Ac-Tyr-(SO3 H)-Nle-Gly-Trp-Nle-Thr(SO3 H)-N-methyl-Phe-NH2] (Ac-[sY][Nle]GW[Nle][Thr(SO3H)][NMeF]-NH2) | 21 ± 12 % of Control | 52 ± 13 % of Control | – | – | Food Intake 1st Meal ([1]; 1 microgm/Kg i.p.): 36 ± 4 % of Control; Food Intake 2nd Meal ([1]; 1 microgm/Kg i.p.): 71 ± 13 % of Control; Food Intake 1st Meal ([1]; 3 microgm/Kg i.p.): 23 ± 13 % of Control; Food Intake 2nd Meal ([1]; 3 microgm/Kg i.p.): 59 ± 6 % of Control; Food Intake 1st Meal ([1]; 10 microgm/Kg i.p.): 13 ± 1 % of Control; Food Intake 2nd Meal ([1]; 10 microgm/Kg i.p.): 62 ± 8 % of Control; Food Intake 1st Meal ([1]; 16 microgm/Kg i.p.): 27 ± 17 % of Control; Food Intake 2nd Meal ([1]; 16 microgm/Kg i.p.): 45 ± 11 % of Control
2 | CSCC[C@H](NC(=O)[C@H](Cc1ccc(OS(=O)(=O)O)cc1)NC(C)=O)C(=O)N[C@@H](C)C(=O)N[C@@H](Cc1c[nH]c2ccccc12)C(=O)N[C@@H](CCSC)C(=O)N[C@H](C(=O)N(C)[C@@H](Cc1ccccc1)C(N)=O)[C@@H](C)OS(=O)(=O)O [Example 6, Ac-Tyr(SO3 H)-Met-Ala-Trp-Met-Thr(SO3 H)-N-methyl-Phe-NH2] (Ac-[sY]MAWM[Thr(SO3H)][NMeF]-NH2) | 14 ± 6 % of Control | 114 ± 9 % of Control | 5.76 | 7.00 | –
3 | CSCC[C@H](NC(=O)[C@H](Cc1ccc(OS(=O)(=O)O)cc1)NC(C)=O)C(=O)NCC(=O)N[C@@H](Cc1cn(C=O)c2ccccc12)C(=O)N[C@@H](CCSC)C(=O)N[C@H](C(=O)N(C)[C@@H](Cc1ccccc1)C(N)=O)[C@@H](C)OS(=O)(=O)O [Example 1, Ac-Tyr(SO3 H)-Met-Gly-Trp(For)-Met-Thr(SO3 H)-N-methyl-Phe-NH2] (Ac-[sY]MGW(For)M[Thr(SO3H)][NMeF]-NH2) | 23 ± 13 % of Control | 55 ± 10 % of Control | 6.00 | 8.03 | –
4 | CCCC[C@H](NC(=O)[C@H](Cc1ccc(OS(=O)(=O)O)cc1)NC(C)=O)C(=O)N[C@H](C)C(=O)N[C@@H](Cc1c[nH]c2ccccc12)C(=O)N[C@@H](CCSC)C(=O)N[C@H](C(=O)N(C)[C@@H](Cc1ccccc1)C(N)=O)[C@@H](C)OS(=O)(=O)O [Example 4, Ac-Tyr(SO3 H)-Nle-(D)Ala-Trp-Met-Thr(SO3 H)-n-Methyl-Phe-NH2] (Ac-[sY][Nle][dA]WM[Thr(SO3H)][NMeF]-NH2) | 5 ± 5 % of Control | 79 ± 13 % of Control | 7.00 | 7.36 | –
5 | CSCC[C@H](NC(=O)[C@H](Cc1ccc(OS(=O)(=O)O)cc1)NC(C)=O)C(=O)N[C@@H](C)C(=O)N[C@@H](Cc1cn(C=O)c2ccccc12)C(=O)N[C@@H](CCSC)C(=O)N[C@H](C(=O)N(C)[C@@H](Cc1ccccc1)C(N)=O)[C@@H](C)OS(=O)(=O)O [Example 5, Ac-Tyr(SO3 H)-Met-Ala-Trp(For)-Met-Thr(SO3 H)-N-methyl-Phe-NH2] (Ac-[sY]MAW(For)M[Thr(SO3H)][NMeF]-NH2) | 70 ± 2 % of Control | 133 ± 9 % of Control | 5.39 | 5.38 | –
6 | CSCC[C@H](NC(=O)[C@H](Cc1c[nH]c2ccccc12)NC(=O)CNC(=O)[C@H](Cc1ccc(OS(=O)(=O)O)cc1)NC(C)=O)C(=O)N[C@H](C(=O)N(C)[C@@H](Cc1ccccc1)C(N)=O)[C@@H](C)OS(=O)(=O)O [Example 14, Ac-Tyr(SO3 H)-Gly-Trp-Met-Thr(SO3 H)-N-methyl-Phe-NH2] (Ac-[sY]GWM[Thr(SO3H)][NMeF]-NH2) | 36 ± 8 % of Control | 141 ± 9 % of Control | – | – | Food Intake 1st Meal ([1]; 3 microgm/Kg i.p.): 86 ± 16 % of Control; Food Intake 2nd Meal ([1]; 3 microgm/Kg i.p.): 120 % of Control; Food Intake 1st Meal ([1]; 320 microgm/Kg i.p.): 4 ± 5 % of Control; Food Intake 2nd Meal ([1]; 320 microgm/Kg i.p.): 121 ± 3 % of Control
7 | CSCC[C@H](NC(=O)[C@H](Cc1ccc(OS(=O)(=O)O)cc1)NC(=O)CNCCNC(C)=O)C(=O)NCC(=O)N[C@@H](Cc1cn(C=O)c2ccccc12)C(=O)N[C@@H](CCSC)C(=O)N[C@H](C(=O)N(C)[C@@H](Cc1ccccc1)C(N)=O)[C@@H](C)OS(=O)(=O)O [Example 7, Ac-Aeg-Tyr(SO3 H)-Met-Gly-Trp(For)-Met-Thr(SO3 H)-N-methyl-Phe-NH2] (H-[N(CH2CH2NHAc)Gly][sY]MGW(For)M[Thr(SO3H)][NMeF]-NH2) | 17 ± 9 % of Control | 95 ± 16 % of Control | – | – | –
